According to patent US20230348424A1, “HETEROCYCLIC COMPOUNDS AND METHODS OF USE” (Schrödinger, Inc., priority 2022, published 2023):

Target: SOS1:KRAS (G12C) interaction (Homo sapiens (Human), UniProt Q07889)
Assay: SOS1 KRas(G12C) FRET Assay
Assay type: binding
Conditions: 0.5 nM His10-SOS1 (res. 564-1049), 2.5 nM GST-KRAS G12C (res. 1-169), 2 hrs at RT
In short: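 GST-KRAS G12C (res. 1-169) at 2.5 nM and His10-SOS1 (res. 564-1049) at 0.5 nM, final, in PBS with 0.1% BSA, 5 mM MgCl2, 100 mM KF, 5 mM DTT and 0.5% DMSO. After 2 h at RT, FRET read at 665/615 nm and normalized to DMSO and no-SOS1 controls. IC50 by non-linear regression.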

Sequence of SOS1:KRAS (G12C) interaction (Q07889 564-1049, stated change not applied): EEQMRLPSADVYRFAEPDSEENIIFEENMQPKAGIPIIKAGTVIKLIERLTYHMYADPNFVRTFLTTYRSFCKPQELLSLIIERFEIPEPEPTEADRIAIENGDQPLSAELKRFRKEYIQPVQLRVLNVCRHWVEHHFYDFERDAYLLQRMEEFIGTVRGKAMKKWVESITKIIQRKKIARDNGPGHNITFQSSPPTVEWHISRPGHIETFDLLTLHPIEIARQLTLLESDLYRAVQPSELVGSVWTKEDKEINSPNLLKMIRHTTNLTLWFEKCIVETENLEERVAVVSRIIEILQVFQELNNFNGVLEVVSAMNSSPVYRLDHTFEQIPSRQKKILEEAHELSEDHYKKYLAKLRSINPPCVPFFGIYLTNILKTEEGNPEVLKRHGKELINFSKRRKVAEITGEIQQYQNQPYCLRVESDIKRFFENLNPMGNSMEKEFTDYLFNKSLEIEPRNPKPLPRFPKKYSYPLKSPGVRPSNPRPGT

Structure (SMILES)	IC50 [nM]
C[C@H](NC(=O)c1cn(C23CC(C2)C3)c(=O)cc1N[C@H]1[C@@H]2CN(C)C[C@@H]21)c1cccc(C#N)c1Cl (single isomer, unassigned) [Example 178]	> 10000
Cc1c([C@@H](C)NC(=O)c2cn(C3CCOCC3)c(=O)cc2N[C@H]2[C@@H]3CC[C@H]2CN(C)C3)cccc1C(F)(F)F (single isomer, unassigned) [Example 32]	58.2
C[C@@H](NC(=O)c1cn(C2(C)CN(C(=O)C3CC3)C2)c(=O)cc1NC1CCN(C)CC1)c1cccc(C(F)F)c1F [Example 78, (R)-1-(1-(cyclopropanecarbonyl)-3-methylazetidin-3-yl)-N-(1-(3-(difluoromethyl)-2-fluorophenyl)ethyl)-4-((1-methylpiperidin-4-yl)amino)-6-oxo-1,6-dihydropyridine-3-carboxamide]	0.9
C[C@@H](NC(=O)c1cn([C@H]2C[C@@H]2C)c(=O)cc1N[C@H]1[C@@H]2CN(C)C[C@@H]21)c1cccc(C(F)F)c1F (single isomer, unassigned) [Example 271]	36.9
C[C@@H](NC(=O)c1cn([C@H]2CCOC(C)(C)C2)c(=O)cc1NC1CCN(C)CC1)c1cccc(C(F)F)c1F (single isomer, unassigned) [Example 308]	17.9
C[C@@H](NC(=O)c1cn(C2(C(F)F)CC2)c(=O)cc1N[C@H]1CCN(C)C[C@H]1F)c1cccc(C(F)F)c1F (single isomer, unassigned) [Example 68]	14.3
C[C@@H](NC(=O)c1cn(C2(C(F)F)CC2)c(=O)cc1N[C@@H]1[C@@H]2CC[C@H]1CNC2)c1cccc(C(F)F)c1F (single isomer, unassigned) [Example 281]	18.4
C[C@@H](NC(=O)c1cn([C@H]2CC23CC3)c(=O)cc1N[C@H]1[C@@H]2CN(C)C[C@@H]21)c1cccc(C(C)(F)F)c1F (single isomer, unassigned) [Example 255]	27
Cc1c(C#N)cccc1[C@@H](C)NC(=O)c1cn([C@H]2[C@H](C)C2(F)F)c(=O)cc1N[C@H]1[C@@H]2CN(C)C[C@@H]21 (single isomer, unassigned) [Example 194]	19.3
C[C@@H](NC(=O)c1cn([C@@]2(C(F)(F)F)CCOC2)c(=O)cc1NC1CCN(C)CC1)c1cccc(C(F)F)c1F [Example 232, N-((R)-1-(3-(difluoromethyl)-2-fluorophenyl)ethyl)-4-((1-methylpiperidin-4-yl)amino)-6-oxo-1-((S)-3-(trifluoromethyl)tetrahydrofuran-3-yl)-1,6-dihydropyridine-3-carboxamide]	91.9
COc1c(NC2CCN(C)CC2)c(C(=O)N[C@H](C)c2cccc(C(F)(F)F)c2C)cn(C2CCOCC2)c1=O [Example 18, (R)-5-methoxy-N-(1-(2-methyl-3-(trifluoromethyl)phenyl)ethyl)-4-((1-methylpiperidin-4-yl)amino)-6-oxo-1-(tetrahydro-2H-pyran-4-yl)-1,6-dihydropyridine-3-carboxamide]	77.8
C[C@@H](NC(=O)c1cn([C@@H]2CCC2(F)F)c(=O)cc1N[C@H]1[C@@H]2CN(C)C[C@@H]21)c1cccc(C(F)(F)F)c1 (single isomer, unassigned) [Example 256]	13.9
C[C@@H](NC(=O)c1cn(C2(C(F)F)CC2)c(=O)cc1NC1CCN(C)CC1)c1cccc2c(F)coc12 [Example 54, (R)-1-(1-(difluoromethyl)cyclopropyl)-N-(1-(3-fluorobenzofuran-7-yl)ethyl)-4-((1-methylpiperidin-4-yl)amino)-6-oxo-1,6-dihydropyridine-3-carboxamide]	26.6
C[C@@H]1[C@@H](n2cc(C(=O)N[C@H](C)c3cccc(C(C)(F)F)c3F)c(N[C@H]3[C@@H]4CN(C)C[C@@H]43)cc2=O)C1(F)F (single isomer, unassigned) [Example 195]	5.44
C[C@@H](NC(=O)c1cn(C2(C(F)F)CC2)c(=O)cc1N[C@H]1CCN(C)C2(CC2)C1)c1cccc(C(F)F)c1F (single isomer, unassigned) [Example 311]	9.7
COc1ccc([C@H](C)NC(=O)c2cn(C3(C(F)F)CC3)c(=O)cc2NC2CCN(C)CC2)c(F)c1C(F)(F)F (single isomer, unassigned) [Example 166]	193
C[C@@H](NC(=O)c1cn(C2(C)CCN(C(=O)C3(F)CC3)C2)c(=O)cc1NC1CCN(C)CC1)c1cccc(C(F)F)c1F (stereo partly drawn) [Example 267, N-((R)-1-(3-(difluoromethyl)-2-fluorophenyl)ethyl)-1-(1-(1-fluorocyclopropane-1-carbonyl)-3-methylpyrrolidin-3-yl)-4-((1-methylpiperidin-4-yl)amino)-6-oxo-1,6-dihydropyridine-3-carboxamide]	2.44

Structure (SMILES)	IC50 [nM]
C[C@@H](NC(=O)c1cn(C2(C(F)F)CC2)c(=O)cc1N[C@H]1[C@@H]2CNC[C@@H]21)c1cccc(C(F)F)c1F [Example 279, 4-(((1R,5S,6s)-3-azabicyclo[3.1.0]hexan-6-yl)amino)-N-((R)-1-(3-(difluoromethyl)-2-fluorophenyl)ethyl)-1-(1-(difluoromethyl)cyclopropyl)-6-oxo-1,6-dihydropyridine-3-carboxamide]	37.3
C[C@@H](NC(=O)c1cn([C@H]2[C@H](C)C2(F)F)c(=O)cc1N[C@H]1[C@@H]2CN(C)C[C@@H]21)c1cccc(C(C)(F)F)c1F (single isomer, unassigned) [Example 196]	43.2
C[C@@H](NC(=O)c1cn(C2(C(F)F)CC2)c(=O)cc1N[C@H]1[C@@H]2CC[C@H]1CNC2)c1cccc(C(F)F)c1F (single isomer, unassigned) [Example 280]	15.8
CC(NC(=O)c1cn(C2(C(F)F)CC2)c(=O)cc1N[C@H]1[C@@H]2CN(C)C[C@@H]21)c1cccc(C(F)(F)c2cocn2)c1F (stereo partly drawn) [Example 176, N-(1-(3-(difluoro(oxazol-4-yl)methyl)-2-fluorophenyl)ethyl)-1-(1-(difluoromethyl)cyclopropyl)-4-(((1R,5S,6s)-3-methyl-3-azabicyclo[3.1.0]hexan-6-yl)amino)-6-oxo-1,6-dihydropyridine-3-carboxamide]	109
C[C@@H](NC(=O)c1cn([C@H]2CCC2(F)F)c(=O)cc1N[C@H]1[C@@H]2CN(C)C[C@@H]21)c1cccc(C(F)(F)F)c1 (single isomer, unassigned) [Example 257]	85.8
C[C@@H](NC(=O)c1cn(C2(C(F)F)CC2)c(=O)cc1N[C@H]1CCCn2cncc21)c1cccc(C(F)F)c1F (single isomer, unassigned) [Example 183]	6.1
Cc1c([C@@H](C)NC(=O)c2cn(C3CCOCC3)c(=O)cc2NC[C@H]2CC[C@@H](N(C)C)CC2)cccc1C(F)(F)F [Example 302, 4-((((1s,4S)-4-(dimethylamino)cyclohexyl)methyl)amino)-N-((R)-1-(2-methyl-3-(trifluoromethyl)phenyl)ethyl)-6-oxo-1-(tetrahydro-2H-pyran-4-yl)-1,6-dihydropyridine-3-carboxamide]	31.5
C[C@@H](NC(=O)c1cn(C2(C(F)(F)F)CCC2)c(=O)cc1NC1CCN(C)CC1)c1cccc(C(F)F)c1F [Example 225, (R)-N-(1-(3-(difluoromethyl)-2-fluorophenyl)ethyl)-4-((1-methylpiperidin-4-yl)amino)-6-oxo-1-(1-(trifluoromethyl)cyclobutyl)-1,6-dihydropyridine-3-carboxamide]	13.9
C[C@@H](NC(=O)c1cn(C23CC(C2)C3)c(=O)cc1NC1CCN(C)CC1)c1cccc(C(F)F)c1F [Example 217, (R)-1-(bicyclo[1.1.1]pentan-1-yl)-N-(1-(3-(difluoromethyl)-2-fluorophenyl)ethyl)-4-((1-methylpiperidin-4-yl)amino)-6-oxo-1,6-dihydropyridine-3-carboxamide]	7.4
C[C@@H](NC(=O)c1cn([C@H]2CC2(F)F)c(=O)cc1N[C@H]1[C@@H]2CN(C)C[C@@H]21)c1cccc(C(C)(F)F)c1F (single isomer, unassigned) [Example 202]	19.5
C[C@@H](NC(=O)c1cn([C@]2(C(F)(F)F)CCOC2)c(=O)cc1N[C@H]1[C@@H]2CN(C)C[C@@H]21)c1cccc(C(F)F)c1F (single isomer, unassigned) [Example 235]	142
C[C@@H](NC(=O)c1cn(C2(C(F)F)CC2)c(=O)cc1N[C@H]1[C@@H]2CC[C@H]1CN(C)C2)c1cccc(C(F)F)c1F [Example 293, N-((R)-1-(3-(difluoromethyl)-2-fluorophenyl)ethyl)-1-(1-(difluoromethyl)cyclopropyl)-4-(((1R,5S,8r)-3-(methyl-d3)-3-azabicyclo[3.2.1]octan-8-yl)amino)-6-oxo-1,6-dihydropyridine-3-carboxamide]	19.2
C[C@@H](NC(=O)c1cn([C@@H]2CCOC(C)(C)C2)c(=O)cc1N[C@H]1[C@@H]2CN(C)C[C@@H]21)c1cccc(C(F)F)c1F [Example 309, N-((R)-1-(3-(difluoromethyl)-2-fluorophenyl)ethyl)-1-((R)-2,2-dimethyltetrahydro-2H-pyran-4-yl)-4-(((1R,5S,6s)-3-methyl-3-azabicyclo[3.1.0]hexan-6-yl)amino)-6-oxo-1,6-dihydropyridine-3-carboxamide]	11.7
Cc1c([C@@H](C)NC(=O)c2cn(C3CCOCC3)c(=O)cc2NC2CCN(C3CC3)CC2)cccc1C(F)(F)F [Example 284, (R)-4-((1-cyclopropylpiperidin-4-yl)amino)-N-(1-(2-methyl-3-(trifluoromethyl)phenyl)ethyl)-6-oxo-1-(tetrahydro-2H-pyran-4-yl)-1,6-dihydropyridine-3-carboxamide]	23
C[C@@H](NC(=O)c1cn([C@H]2CC2(F)F)c(=O)cc1N[C@H]1[C@@H]2CN(C)C[C@@H]21)c1cccc(C(F)(F)F)c1F (single isomer, unassigned) [Example 200]	16.7
C[C@@H](NC(=O)c1cn(C2(C(F)F)CC2)c(=O)cc1N[C@H]1C[C@H]2C[C@@H]1CN2C)c1cccc(C(F)F)c1F (single isomer, unassigned) [Example 236]	45.3
